Literature values, collected in patent US10213443B2, “Tetracycline topical formulations, preparation and uses thereof in treating an ocular condition” (Hovione International Ltd., priority 2012, dated 2019).

What was measured:
[1] = in man
[2] = compared with doxycycline

CN(C)c1ccc(O)c2c1C[C@H]1C[C@H]3[C@H](N(C)C)C(O)=C(C(N)=O)C(=O)[C@@]3(O)C(O)=C1C2=O [Minocycline, minocycline]
oral bioavailability [1]: ~100% | phototoxicity [2]: not phototoxic
